Here are results for 1 substance from patent US20220042962A1, “METHOD FOR […] SITE-[…] WATER QUALITY […] OF RIVER BASIN” (DALIAN UNIVERSITY OF TECHNOLOGY, priority 2020, published 2022).

For the series, the system named is aquatic species in Liaohe River Basin. The series can be described thus: Derivation of site-specific water quality criterion (species sensitivity distribution and toxicity sorting).

With ammonia nitrogen, the “water quality criterion value derived by the toxicity sorting method” value (Liaohe River Basin, four most sensitive resident sensitive and endemic species) is on record as 15.91 mg/L. Moreover, the “water quality criterion value derived by the species sensitivity method” value (Liaohe River Basin, safety coefficient 2) was 13.47 mg/L. Further, under “Liaohe River Basin, weights 0.3 and 0.7, pH=7.0 and temperature=20° C.”, the “water quality criterion value (validation value)” value is reported as 15.18 mg/L. The “X value at Y=0.05 transformed to a base-10 exponent” value (logistic SSD model, before division by safety coefficient 2) is 26.93 mg/L. The “X (log10 toxicity value) at Y=0.05 on the logistic SSD fitting curve” value (logistic model, cumulative probability Y=0.05, pH=7.0, temperature=20° C.) was determined as 1.4302.
